For the test, the target named is T1, immobilized ELAM-1 (Homo sapiens, UniProt P16581).
T1 construct: truncated form comprising the complete extracellular domain (amino acids 1 through 554); made in house; released with phospholipase C
T1 sequence (P16581 22-554): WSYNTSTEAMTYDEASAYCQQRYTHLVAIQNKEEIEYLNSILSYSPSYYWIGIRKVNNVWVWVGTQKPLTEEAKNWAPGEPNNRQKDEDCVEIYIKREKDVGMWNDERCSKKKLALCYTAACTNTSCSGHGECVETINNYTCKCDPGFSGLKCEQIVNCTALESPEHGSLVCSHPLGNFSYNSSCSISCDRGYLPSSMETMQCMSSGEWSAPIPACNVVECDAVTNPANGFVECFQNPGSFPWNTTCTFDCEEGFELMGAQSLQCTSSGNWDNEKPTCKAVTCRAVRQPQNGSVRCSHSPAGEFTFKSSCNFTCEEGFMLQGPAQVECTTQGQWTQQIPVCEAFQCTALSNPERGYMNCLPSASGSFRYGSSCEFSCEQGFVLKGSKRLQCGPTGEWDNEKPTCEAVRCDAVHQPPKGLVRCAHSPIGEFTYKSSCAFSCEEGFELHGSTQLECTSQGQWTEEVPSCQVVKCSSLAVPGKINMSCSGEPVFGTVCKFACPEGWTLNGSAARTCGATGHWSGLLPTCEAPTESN
The test is described as follows: cell-based. The format is cell-based. As to the method:
By comparing test wells with control wells (no receptor), one can determine whether a peptide binds to ELAM-1 specifically. Peptides found to bind specifically to ELAM-1 were then synthesized as the free peptide (no phage) and tested in an HL60 cell adhesion competition assay. The competition assay was carried out similarly to the ELISA, except that labeled HL60 cells were added in addition to the peptide (the control wells were typically of at least two types: (1) no immobilized ELAM-1; and (2) no peptide; see the Examples). Peptides that block the binding of labeled HL60 cells ELAM-1 are preferred compounds of the invention. […] The assay requires HL60 cells labeled with tritiated thymidine. To label the cells, about 10 million HL60 cells are collected by centrifugation (2500 RPM for 3 minutes) and resuspended in 15 mL of DMEM/F12 plus 5% fetal calf serum containing 2 μCi/mL of tritiated thymidine (Amersham). The cells are then placed in a T75 flask and incubated at 37°C for 24 hours. The cells are then collected by centrifugation, washed twice with RPMI/HEPES/0.1% FCS, and resuspended in the same solution at a concentration of about one to two million cells per mL. […] After this incubation, aliquots were removed from each well and placed in scintillation vials; scintillation fluid was added to each vial; and the radioactivity in each aliquot was quantitated by LS counting. […]

Ends that are not written are not given here.

With HITWDQLWNVMN, the “blocking of HL60 cell binding that occurred in the absence of added compound” value (200000.0) is reported as “over 80%”. For the same sequence, the inhibition at 50 µM (HL-60, at a concentration of 50 µM, tested from 0.5 to 100 µM, Figure 2, read-out: inhibition of binding of HL60 cells) was ~50%.

A word on the inhibition: it is the relative decrease from the control value, in per cent.

Source of the values: patent EP0700301B1, “PEPTIDES AND COMPOUNDS THAT BIND TO ELAM-1” (AFFYMAX TECHNOLOGIES N.V., priority 1993, dated 1994).
